The test system of this assay is red blood cell (RBC). Nature of the assay: Cell-based antioxidant protection in erythrocytes (CAP-e) assay. The conditions noted are these: human RBC, AAPH; biphasic dose response; FIG. 2. The source says: As a model cell type, red blood cell (RBC) was used. This is an inert cell type, in contrast to other cell types such as PMN cells as described in section 2, where pro-inflammatory compounds may induce the reactive oxidative burst, or anti-inflammatory compounds may perform cellular signaling and change the behavior of the PMN cell, at doses many times below levels of detection for antioxidants. This assay was developed particularly to be able to assess antioxidants from complex natural products in a cell-based system. Human RBC were washed repeatedly physiological saline, and then exposed to the test products. During the incubation with the test products, any antioxidant compounds able to cross the cell membrane will enter the interior of the RBC. Then the RBC are washed to remove compounds that were not absorbed by the cells, loaded with the DCF-DA dye, which turns fluorescent upon exposure to reactive oxygen species. Oxidation was triggered by addition of the peroxyl free radical generator AAPH. The fluorescence intensity was evaluated. The low fluorescence intensity of untreated control cells served as a baseline, and RBC treated with AAPH alone served as a positive control for maximum oxidative damage.

For `O=C[C@H](O)[C@H](O)[C@H](O)CO` [ribose, Ribose], the “antioxidant protection of erythrocytes from oxidative damage” value is “protected the erythrocytes”.

For the origin of these results see US20130196934A1, “COMPOSITION FOR PERINATAL AND NEONATAL STROKE” (priority 2010, published 2013).
